Data taken from patent US11072630B2, “Fluorinated and alkylated bile acids” (Metselex, Inc., priority 2015, dated 2021).

Tests used:
primary rat hepatocytes [1] = assay: DCA-induced cytotoxicity, LDH release assay; settings: for inhibition of DCA-induced LDH release: 100 μM bile acid, 50 μM DCA
Experimental: (§1) Primary rat hepatocytes were incubated with 100 μM UDCA, methylated UDCA, or no addition (control) for 12 h. Cells were then exposed to 50 μM DCA for 40 h before processing for cytotoxicity activity, including LDH (top), and adenylate kinase (middle) assays, and cell viability (bottom).
(§2) Briefly, rats were anesthetized with phenobarbital sodium (100 mg/kg body weight) injected into the peritoneal cavity. After administration of heparin (200 units/kg body weight) in the tail vein, the abdomen was opened and the portal vein exposed and cannulated. The liver was then perfused at 37° C. in situ with a calcium-free Hanks' Balanced Salt Solution (HBSS) for 10 min, and then with 0.05% collagenase type IV in calcium-present HBSS for another 10 min.
Hepatocyte suspensions were obtained by passing collagenase-digested livers through 125 μm gauze and washing cells in Complete William's E medium (William's E medium, Sigma-Aldrich Corp., St Louis, Mo., USA) supplemented with 26 mM sodium bicarbonate, 23 mM HEPES, 0.01 units/mL insulin, 2 mM L-glutamine, 10 nM dexamethasone, 100 units/mL penicillin, and 10% heat-inactivated fetal bovine serum (Invitrogen Corp., Carlsbad, Calif., USA). Viable primary rat hepatocytes were enriched by low-speed centrifugation at 200 g for 3 min. Cell viability was determined by trypan blue exclusion and was typically 80-85%. After isolation, hepatocytes were ressuspended in Complete William's E medium and plated on Primaria™ tissue culture dishes (BD Biosciences, San Jose, Calif., USA) at 5×10^4 cells/cm2.
Cells were maintained at 37° C. in a humidified atmosphere of 5% CO2 for 6 h, to allow attachment. […]
General cell death or cytotoxicity was evaluated using the lactate dehydrogenase (LDH) Cytotoxicity Detection KitPLUS (Roche Diagnostics GmbH, Mannheim, Germany), following the manufacturer's instructions. […] Finally, absorbance was measured at 490 nm, with 620 nm as reference, using a Bio-Rad model 680 microplate reader (Bio-Rad Laboratories, Hercules, Calif., USA).

primary rat hepatocytes [2] = assay: Cell viability with the bile acids alone in primary cultures of rat hepatocytes; type: cell-based; settings: bile acid alone
Experimental: as §2
Hepatocyte suspensions were obtained by passing collagenase-digested livers through 125 μm gauze and washing cells in Complete William's E medium (William's E medium, Sigma-Aldrich Corp., St Louis, Mo., USA) supplemented with 26 mM sodium bicarbonate, 23 mM HEPES, 0.01 units/mL insulin, 2 mM L-glutamine, 10 nM dexamethasone, 100 units/mL penicillin, and 10% heat-inactivated fetal bovine serum (Invitrogen Corp., Carlsbad, Calif., USA). Viable primary rat hepatocytes were enriched by low-speed centrifugation at 200 g for 3 min. Cell viability was determined by trypan blue exclusion and was typically 80-85%. […]
General cell death was also determined using a bioluminescent cytolysis assay, designed to measure the release of adenylate kinase (AK) enzyme from damaged cells (ToxiLight™ BioAssay Kit, Lonza). […] The absorbance of the formazan at 490 nm can be measured directly from 96-well assay plates without additional processing. […]

primary rat hepatocytes [3] = assay: Cytotoxicity of the bile acids alone in primary cultures of rat hepatocytes; settings: bile acid alone
Excerpt: MTS is bioreduced by cells into a formazan product that is soluble in tissue culture medium. […] The quantity of formazan product as measured by the amount of 490 nm absorbance is directly proportional to the number of living cells in culture.

primary rat hepatocytes [4] = assay: TGF-β1-induced loss of cell viability (MTS activity); type: cell-based; settings: 100 μM for 12 h, then 1 nM TGF-β1 for 36 h
Experimental: FIG. 5. […] Primary rat hepatocytes were pre-incubated with 100 μM methylated UDCA, or no addition (control) for 12 h. Cells were then exposed to 1 nM TGF-β1 for 36 h before processing for MTS activity.

primary rat hepatocytes [5] = assay: DCA-induced cytotoxicity, adenylate kinase release (ToxiLight Assay); type: cell-based; settings: 100 μM bile acid, cells exposed to 50 μM DCA
Experimental: as §1
(§3) Briefly, rats were anesthetized with phenobarbital sodium (100 mg/kg body weight) injected into the peritoneal cavity. After administration of heparin (200 units/kg body weight) in the tail vein, the abdomen was opened and the portal vein exposed and cannulated. […]
(§4) Hepatocyte suspensions were obtained by passing collagenase-digested livers through 125 μm gauze and washing cells in Complete William's E medium (William's E medium, Sigma-Aldrich Corp., St Louis, Mo., USA) supplemented with 26 mM sodium bicarbonate, 23 mM HEPES, 0.01 units/mL insulin, 2 mM L-glutamine, 10 nM dexamethasone, 100 units/mL penicillin, and 10% heat-inactivated fetal bovine serum (Invitrogen Corp., Carlsbad, Calif., USA). […] Cell viability was determined by trypan blue exclusion and was typically 80-85%. […]
(§5) General cell death was also determined using a bioluminescent cytolysis assay, designed to measure the release of adenylate kinase (AK) enzyme from damaged cells (ToxiLight™ BioAssay Kit, Lonza). […]

primary rat hepatocytes [6] = assay: DCA-induced loss of cell viability (CellTiter-Fluor Cell Viability Assay); type: cell-based; settings: pretreatment with 100 μM bile acid, 50 μM DCA
Experimental: as §1, §3, §4, §5

Row | SMILES | inhibition of DCA-induced LDH release (primary rat hepatocytes [1]) | cell viability (primary rat hepatocytes [2]; from 10 to 100 μM concentrations) | viability (primary rat hepatocytes [2]; highest bile acid concentrations (200 and 400 μM)) | prevention of DCA-induced cytotoxicity (FIG. 4 legend) (primary rat hepatocytes [1]; 100 μM for 12 h, then 50 μM DCA for 40 h, LDH and adenylate kinase assays) | cytotoxicity (primary rat hepatocytes [3]; 200 and 400 μM concentrations) | cytotoxicity (primary rat hepatocytes [3]; concentrations up to 100 μM) | inhibition of TGF-β1-induced reduction in MTT metabolism / loss of cell viability (primary rat hepatocytes [4]) | inhibition of TGF-β1-induced reduction in MTT metabolism / loss of cell viability (primary rat hepatocytes [4]; listed as Methylated UDCA) | protection against DCA-induced adenylate kinase release (ToxiLight Assay) (primary rat hepatocytes [5]) | rescue of cell viability in cells exposed to DCA (primary rat hepatocytes [6])
1 | C[C@H](CCC(=O)O)[C@H]1CC[C@H]2[C@@H]3[C@@H](O)C[C@@H]4C[C@H](O)CC[C@]4(C)[C@H]3CC[C@]12C [UDCA, ursodeoxycholic acid, reference compound] | ~70% |  |  |  |  |  |  |  |  | 
2 | CO[C@H]1C[C@@H]2C[C@H](O)CC[C@]2(C)[C@H]2CC[C@]3(C)[C@@H]([C@H](C)CCC(=O)O)CC[C@H]3[C@H]12 [methylated UDCA, 3α-hydroxy,7β-methoxy-5β-cholan-24-oic acid] | ~70% | tended to increase cell viability | decreased viability | prevents DCA-induced cytotoxicity | an increase in cytotoxicity was evident | remained largely unchanged | effective at inhibiting TGF-β1-induced reduction in MTT metabolism | prevents TGF-β1-induced loss of cell viability | slightly better protection | effective at rescuing cell viability
